Assay results taken from patent US20230212180A1, “SUBSTITUTED PYRAZINE COMPOUND, PHARMACEUTICAL COMPOSITION COMPRISING SAME, AND USE THEREOF” (Sichuan Kelun-Biotech Biopharmaceutical Co., Ltd., priority 2020, published 2023).
pIC50: −log10 of the molar value. Read-outs that look alike come from different tables or passages of the source.

Columns and labels:
[1] = target: T1, recombinant full-length human PTPN11 (SHP2) (Homo sapiens, UniProt Q06124); assay: Inhibition of in vitro enzyme activity of SHP2 (DiFMUP fluorescence endpoint assay); assay type: biochemical; settings: SHP2 0.5 nM, DiFMUP 200 μM, IRS-1 0.5 μM; 60 min incubation
T1 construct: recombinant full-length human PTPN11 (SHP2), active (SignalChem); purchased SignalChem
T1 sequence (Q06124 1-593): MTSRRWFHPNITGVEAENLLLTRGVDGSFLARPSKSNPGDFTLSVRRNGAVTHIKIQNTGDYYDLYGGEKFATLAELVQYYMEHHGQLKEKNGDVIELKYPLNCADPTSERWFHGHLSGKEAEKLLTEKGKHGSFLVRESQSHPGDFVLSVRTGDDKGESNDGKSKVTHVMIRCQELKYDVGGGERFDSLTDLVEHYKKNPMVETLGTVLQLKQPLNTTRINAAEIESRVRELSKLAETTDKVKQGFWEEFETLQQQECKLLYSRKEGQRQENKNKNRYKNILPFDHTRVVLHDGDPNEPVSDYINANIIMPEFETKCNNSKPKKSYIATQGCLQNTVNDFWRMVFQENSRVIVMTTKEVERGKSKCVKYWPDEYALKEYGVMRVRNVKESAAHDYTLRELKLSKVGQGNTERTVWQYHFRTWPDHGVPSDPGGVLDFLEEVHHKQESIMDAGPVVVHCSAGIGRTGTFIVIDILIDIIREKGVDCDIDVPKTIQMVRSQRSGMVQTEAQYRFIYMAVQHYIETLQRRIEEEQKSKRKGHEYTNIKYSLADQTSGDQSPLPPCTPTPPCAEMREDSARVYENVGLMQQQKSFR
Experimental: Test Example 1: Experiment on the Inhibition of In Vitro Enzyme Activity of SHP2 (Protein Phosphatase)
phosphatase: recombinant full-length human PTPN11 (SHP2), active (SignalChem);
substrate: 6,8-difluoro-4-methylumbelliferyl phosphate (DiFMUP) (Invitrogen);
activating peptide: IRS1_pY1172(dPEG8)pY1222 (IRS1) (BPS Bioscience);
terminator: bpv(phen) (bpv) (Abcam).
SHP2 concentration: 0.5 nM;
DiFMUP concentration: 200 μM;
IRS-1 concentration: 0.5 μM;
bpv concentration: 160 μM;
buffer systems: 60 mM Hepes pH 7.2; 75 mM NaCl; 75 mM KCl; 0.05% surfactant P20; 1 mM EDTA; 5 mM DTT;
incubation duration of compound and enzyme: 60 minutes;
reaction time of enzyme and substrate: 30 minutes;
parameters for microplate reader: BMG PHERAstar fluorescence microplate reader at an excitation wavelength of 340 nm and an emission wavelength of 450 nm.
Test group: A mixture of the test compound and the phosphatase SHP2 together with the activating peptide IRS-1 were incubated in the buffer system at room temperature for 60 minutes. The substrate DiFMUP was added to initiate the reaction and incubated at room temperature for 30 minutes. Thereafter, bpv was added to terminate the reaction. The reaction plate was placed in the microplate reader, and the fluorescence intensities of the wells in the plate were measured using an endpoint assay.
Negative group: The experimental method for the negative group was the same as that for the test group, except that the test compound was substituted with 0.05% aqueous solution of DMSO.
Blank group: The experimental method for the blank group was the same as that for the test group, except that the test compound was substituted with 0.05% aqueous solution of DMSO and that SHP2 was not added.
The relative inhibitory activity was calculated for the test group at each concentration based on the following equation: inhibition rate (%)=100%−(the fluorescence intensity of the test group−the fluorescence intensity of the blank group)/(the fluorescence intensity of the negative group−the fluorescence intensity of the blank group)×100%. The half maximal inhibitory concentration (IC50) of the compound was calculated by fitting the curve according to the four-parameter logistic model.

[2] = target: T2, CYP3A4 (Homo sapiens, UniProt P08684); assay: Biochemical assay for CYP enzyme inhibition, P450-Glo CYP3A4 Screening System; assay type: in vitro ADME; settings: for IC50: estimated from percentage inhibition, read-out: IC50 (μM) CYP3A4
T2 construct: purchased Promega
T2 sequence (P08684 whole entry): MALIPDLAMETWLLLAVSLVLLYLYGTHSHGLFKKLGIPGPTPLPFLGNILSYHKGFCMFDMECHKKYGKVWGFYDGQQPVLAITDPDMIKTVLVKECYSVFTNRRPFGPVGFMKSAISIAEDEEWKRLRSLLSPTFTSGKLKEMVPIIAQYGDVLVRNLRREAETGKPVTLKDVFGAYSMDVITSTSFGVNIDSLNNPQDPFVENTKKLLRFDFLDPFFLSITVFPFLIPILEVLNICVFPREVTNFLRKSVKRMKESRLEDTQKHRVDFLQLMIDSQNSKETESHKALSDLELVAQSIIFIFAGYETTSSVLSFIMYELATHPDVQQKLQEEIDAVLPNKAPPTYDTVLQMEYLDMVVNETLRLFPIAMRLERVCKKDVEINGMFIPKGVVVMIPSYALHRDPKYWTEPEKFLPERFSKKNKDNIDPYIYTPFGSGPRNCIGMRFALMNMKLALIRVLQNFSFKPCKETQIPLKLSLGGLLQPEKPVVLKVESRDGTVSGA
Experimental: Test Example 5: Biochemical Assay for CYP Enzyme (Cytochrome P450) Inhibition
P450-Glo™ CYP3A4 Screening System, (Promega).
BMG PHERAstar FS Luminescent.
The experiments were carried out separately according to the instructions of the kits. The steps were as follows:
3.3. Inhibition Against CYP3A4:
Test group: The test compounds at different concentrations were added into a microplate, and Luciferin-IPA ([…]), K3PO4 (100 mM), and CYP3A4 (2 nM) were added into each well, and pre-incubated at room temperature for 10 min. Thereafter, an NADPH regeneration system was added. The mixture was reacted at room temperature for 30 min. Finally, an equal volume of detection buffer was added and incubated at room temperature for 20 min, followed by chemiluminescence detection.
Negative control group: The experimental method for the negative control group was the same as that for the test group, except that the test compound was not added.
Blank control group: The experimental method for the blank control group was the same as that for the test group, except that the test compound was not added and that CYP3A4 was replaced with CYP3A4 Membrance (2 nM).
Percentage inhibition=(1−(the chemiluminescent signal value of the test compound group at a certain test concentration−the chemiluminescent signal value of the blank control group)/(the chemiluminescent signal value of the negative control group−the chemiluminescent signal value of the blank control group))×100%.
When the percentage inhibition was between 30% and 80%, a single value or a value range of the half maximal inhibitory concentration (IC50) of the compound against the CYP enzyme was estimated based on the following equation: IC50=X×(1−percentage inhibition)/percentage inhibition, wherein X was the test concentration of the compound.

[3] = system: KYSE-520 cell (human esophageal squamous cell carcinoma cell); assay: Inhibition of the proliferation activity of KYSE-520 cell (CellTiter-Glo); assay type: cell-based; settings: 120 h, KYSE-520 cell proliferation, 5 days
Experimental: Test Example 2: Experiment on the Inhibition of the Proliferation Activity of KYSE-520 Cell (Human Esophageal Squamous Cell Carcinoma Cell)
cell: KYSE-520 (JCRB Cell Bank);
kit: CellTiter-Glo® Luminescent Cell Viability Assay Kit (Promega).
inoculation amount of cell: 1500 cells/well;
incubation conditions for compound: 37° C., 5% CO2;
incubation duration: 5 days;
detecting temperature: room temperature;
chemiluminescence detection using the BMG PHERAstar FS reader.
Cells were cultured in a medium containing 10% fetal bovine serum under the culture conditions of 37° C. and 5% CO2. An appropriate amount of cells were plated into a 96-well plate and cultured overnight in an incubator to allow the cells to adhere to the wall. The following day, the medium was removed and a complete medium containing a pre-diluted compound was added and incubated at 37° C. for 5 days. On the fifth day, the detection reagent CellTiter-Glo® was added into each well. Chemiluminescence was adopted to detect the relative luminescence units (RLUs) of the wells.
The result of a well containing cell-free medium, treated with CellTiter-Glo®, was obtained as the blank value. Cell viability (%)=(sample RLU−blank RLU)/(vehicle RLU−blank RLU)×100%, and maximum inhibition rate (%)=100%−cell viabilitymax. conc. (%). The half maximal inhibitory concentration (IC50) of the compound was calculated by fitting the curve according to the four-parameter logistic model.

Structure (SMILES) | IC50 [1] [nM] | pIC50 [2] | pIC50 [3] | IC50 [2] [µM]
Cc1nc(N2CCC3(CC2)CO[C@@H](C)[C@H]3N)c(CO)nc1Sc1ccnc(N2CCCC2CO)c1Cl (some centres unmarked) [Example 1] | 6.03 | < 5.00 | 6.44 | 
C[C@@H]1OCC2(CCN(c3ncc(Sc4ccnc(N5CCCC5CO)c4Cl)nc3CO)CC2)[C@@H]1N (some centres unmarked) [Example 2] | 1.82 |  | 7.00 | > 10
C[C@@H]1OCC2(CCN(c3ncc(Sc4ccnc(N5CC(CC#N)C5)c4Cl)nc3CO)CC2)[C@@H]1N [Example 5, 2-(1-(4-(5-((3S,4S)-4-amino-3-methyl-2-oxa-8-azaspiro[4.5]decan-8-yl)-6-(hydroxymethyl)pyrazin-2-ylthio)-3-chloropyridin-2-yl)azetidin-3-yl)acetonitrile] | 1.22 | < 5.00 | 7.22 | 
C[C@@H]1OCC2(CCN(c3ncc(Sc4ccnc(N5CC(CO)C5)c4Cl)nc3CO)CC2)[C@@H]1N [Example 6, (3-((3S,4S)-4-amino-3-methyl-2-oxa-8-azaspiro[4.5]decan-8-yl)-6-(3-chloro-2-(3-(hydroxymethyl)azetidin-1-yl)pyridin-4-ylthio)pyrazin-2-yl)methanol] | 1.76 | < 5.00 | 7.40 | 
C[C@@H]1OCC2(CCN(c3ncc(Sc4ccnc(N5CC(C(C)(C)O)C5)c4Cl)nc3CO)CC2)[C@@H]1N [Example 12, 2-(1-(4-(5-((3S,4S)-4-amino-3-methyl-2-oxa-8-azaspiro[4.5]decan-8-yl)-6-(hydroxymethyl)pyrazin-2-ylthio)-3-chloropyridin-2-yl)azetidin-3-yl)propan-2-ol] | 2.5 | < 5.00 | 7.40 | 
CC(C)(O)C1CN(c2nccc(Sc3cnc(N4CCC5(CC4)COC[C@H]5N)c(CO)n3)c2Cl)C1 [Example 13, (S)-2-(1-(4-(5-(4-amino-2-oxa-8-azaspiro[4.5]decan-8-yl)-6-(hydroxymethyl)pyrazin-2-ylthio)-3-chloropyridin-2-yl)azetidin-3-yl)propan-2-ol] | 4.9 |  |  | > 10
C[C@@H]1OCC2(CCN(c3ncc(Sc4ccnc(NCC5(O)CC5)c4Cl)nc3CO)CC2)[C@@H]1N [Example 15, 1-((4-(5-((3S,4S)-4-amino-3-methyl-2-oxa-8-azaspiro[4.5]decan-8-yl)-6-(hydroxymethyl)pyrazin-2-ylthio)-3-chloropyridin-2-ylamino)methyl)cyclopropan-1-ol] | 2.4 | < 5.00 | 7.40 | 
CC(O)C1CN(c2nccc(Sc3cnc(N4CCC5(CC4)CO[C@@H](C)[C@H]5N)c(CO)n3)c2Cl)C1 (stereo partly drawn) [Example 17, 1-(1-(4-(5-((3S,4S)-4-amino-3-methyl-2-oxa-8-azaspiro[4.5]decan-8-yl)-6-(hydroxymethyl)pyrazin-2-ylthio)-3-chloropyridin-2-yl)azetidin-3-yl)ethan-1-ol] | 2.5 | < 5.00 | 7.52 | 
C[C@@H]1OCC2(CCN(c3ncc(Sc4ccnc(N5CCCC5CC(N)=O)c4Cl)nc3CO)CC2)[C@@H]1N (stereo partly drawn) [Example 19, 2-(1-(4-(5-((3S,4S)-4-amino-3-methyl-2-oxa-8-azaspiro[4.5]decan-8-yl)-6-(hydroxymethyl)pyrazin-2-ylthio)-3-chloropyridin-2-yl)pyrrolidin-2-yl)acetamide] | 1.5 |  | 6.72 | > 10
COCC1CN(c2nccc(Sc3cnc(N4CCC5(CC4)CO[C@@H](C)[C@H]5N)c(CO)n3)c2Cl)C1 [Example 21, (3-((3S,4S)-4-amino-3-methyl-2-oxa-8-azaspiro[4.5]decan-8-yl)-6-(3-chloro-2-(3-(methoxymethyl)azetidin-1-yl)pyridin-4-ylthio)pyrazin-2-yl)methanol] | 1.15 | < 5.00 | 6.96 | 
CC(C)(O)C1CN(c2nccc(Sc3cnc(N4CCC5(CC4)Oc4ccccc4[C@H]5N)c(CO)n3)c2Cl)C1 [Example 22, (R)-2-(1-(4-(5-(3-amino-3H-spiro[benzofuran-2,4′-piperidin]-1′-yl)-6-(hydroxymethyl)pyrazin-2-ylthio)-3-chloropyridin-2-yl)azetidin-3-yl)propan-2-ol] | 4.3 |  | 7.30 | > 10
Cc1nc(N2CCC3(CC2)CO[C@@H](C)[C@H]3N)c(CO)nc1Sc1ccnc(N2CC(CS(C)(=O)=O)C2)c1Cl [Example 25, (3-((3S,4S)-4-amino-3-methyl-2-oxa-8-azaspiro[4.5]decan-8-yl)-6-(3-chloro-2-(3-(methylsulfonylmethyl)azetidin-1-yl)pyridin-4-ylthio)-5-methylpyrazin-2-yl)methanol] | 7 | < 5.00 |  | 
C[C@@H]1OCC2(CCN(c3cnc(Sc4ccnc(N5CC(C(C)(C)O)C5)c4Cl)cn3)CC2)[C@@H]1N [Example 28, 2-(1-(4-(5-((3S,4S)-4-amino-3-methyl-2-oxa-8-azaspiro[4.5]decan-8-yl)pyrazin-2-ylthio)-3-chloropyridin-2-yl)azetidin-3-yl)propan-2-ol] | 2.45 | < 5.00 |  | 
C[C@@H]1OCC2(CCN(c3ncc(Sc4ccnc(N5CC(C(C)(C)O)C5)c4F)nc3CO)CC2)[C@@H]1N [Example 40, 2-(1-(4-(5-((3S,4S)-4-amino-3-methyl-2-oxa-8-azaspiro[4.5]decan-8-yl)-6-(hydroxymethyl)pyrazin-2-ylthio)-3-fluoropyridin-2-yl)azetidin-3-yl)propan-2-ol] | 4.13 | < 5.00 |  | 
